The target in assay [1] is T1, Alpha glucosidase (Homo sapiens, UniProt O43451+P10253+P14410+Q2M2H8). In words: Inhibition of alpha glucosidase (unknown origin) using p-nitrophenyl glucopyranoside as substrate by UV based microplate reader analysis. The assay is classed as protein assay.
The species entered for assay [2] is Homo sapiens. In words: Inhibition of beta-glucosidase (unknown origin) assessed as residual activity at 100 uM […] incubated for 1 hr followed by substrate addition and measured after 5 mins by spectrophotometer analysis relative to control. As to conditions: time 65.0 hrs.
Assay [3] concerns the target T1, Alpha glucosidase. As to the kind of experiment: Inhibition of alpha glucosidase (unknown origin) using p-nitrophenyl glucopyranoside as substrate by multimode plate reader analysis. The class given is protein assay.
The target in assay [4] is T1, Alpha glucosidase. As to the kind of experiment: Inhibition of alpha glucosidase (unknown origin) using p-nitrophenyl glucopyranoside as substrate preincubated for 15 mins followed by substrate addition and measured after 30 mins by spectrophotometer analysis. The class given is protein assay.
The target of assay [5] is T2, Glucose-dependent insulinotropic receptor (Homo sapiens, UniProt Q8TDV5).
T2 sequence (Q8TDV5 whole entry): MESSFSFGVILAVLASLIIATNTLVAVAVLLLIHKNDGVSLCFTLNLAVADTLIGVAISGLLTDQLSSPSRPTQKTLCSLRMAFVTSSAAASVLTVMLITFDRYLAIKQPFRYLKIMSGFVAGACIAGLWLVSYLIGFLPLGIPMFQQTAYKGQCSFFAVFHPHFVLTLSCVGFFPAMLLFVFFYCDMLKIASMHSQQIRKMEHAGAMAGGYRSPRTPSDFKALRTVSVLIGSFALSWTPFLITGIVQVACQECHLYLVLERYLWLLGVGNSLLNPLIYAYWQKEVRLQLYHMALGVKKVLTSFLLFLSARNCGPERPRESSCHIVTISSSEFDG
As to the kind of experiment: Agonist activity at human GPR119 incubated for 2 hrs by luciferase reporter gene assay. For orientation: In a reporter assay the amount or activity of a reporter protein is the signal.

In assay [6] the target is Aldo-keto reductase family 1 member B1 (Homo sapiens) (UniProt P15121). In words: Inhibition of Aldose reductase (unknown origin) using DL-Glyceraldehyde as substrate incubated for 5 mins in presence of NADPH by spectrophotometer analysis.
For assay [7], the target named is T1, Alpha glucosidase. As to the kind of experiment: Inhibition of alpha glucosidase (unknown origin) using p-nitrophenyl glucopyranoside as substrate by UV Vis- spectrophotometer analysis. The class given is protein assay.
Assay [8] deals with Mus musculus. As to the kind of experiment: Antidiabetic activity in mouse assessed as reduction in blood glucose level at 100 mg/kg, po bid measured up to 21 days. The assay is classed as functional. The arrangement: scale not given: the % may be the effect or the level left. As to conditions: time <= 21 day.

This note sets out measurements from ChEMBL document CHEMBL5241086, “Research progress of indole compounds with potential antidiabetic activity” (Eur J Med Chem, 2021).

Values after ≈ are worked out from the molar mass of the structure shown.

Broadly, the IC50 is the midpoint of a concentration-inhibition curve. As to `Cc1cccc(NC(=O)CSc2nnc(CCCc3c[nH]c4ccccc34)o2)c1C`, the IC50 in assay [1] worked out at 9.46 µM. With `COC(=O)[C@H](Cc1c[nH]c2ccccc12)NC(=O)c1cccc([N+](=O)[O-])c1`, the Activity in assay [2] was determined as 37%. In assay [3], `Clc1ccc2c(c1)NC(c1c[nH]c3ccccc13)OC2` (configuration not stated) came in with an IC50 of 11.5 µM.

Compound `Clc1ccc2c(c1)COC(c1c(-c3ccccc3)[nH]c3ccccc13)N2` (configuration not stated) gave an IC50 in assay [3] of 11.5 µM.

In the case of `O=C1Nc2ccccc2C1(c1cn(Cc2ccccc2F)c2ccccc12)c1cn(Cc2ccccc2F)c2ccccc12`, the IC50 in assay [4] amounted to 5.98 µM. In general, EC50 refers to the concentration at which the effect is half-maximal. As to `CCc1cnc(N2CCC(C(C)COC(=O)N3CCc4cc(S(C)(=O)=O)ccc43)CC2)nc1` (configuration not stated), the EC50 in assay [5] was 3.9 nM. In assay [3], `Cc1ccc2c(c1)COC(c1c(C)[nH]c3ccccc13)N2` (configuration not stated) registered an IC50 of 11.5 µM.

For orientation: inhibition means the percentage by which the read-out fell short of the control. As for `O=[N+]([O-])c1cc(-c2cc3ccccc3[nH]2)ccc1Cl`, the inhibition in assay [6] stood at 5.3%. Turning to `Cc1[nH]c2ccccc2c1C1Nc2ccccc2CO1` (configuration not stated), the IC50 in assay [3] was 11.5 µM. `Cc1ccnc(NC(=O)CSc2nnc(CCCc3c[nH]c4ccccc34)o2)c1` registered an IC50 in assay [1] of 9.37 µM. Consider `Brc1ccc(-c2csc(-n3nc(-c4ccccc4)cc3-c3c[nH]c4ccccc34)n2)cc1`, for which the IC50 in assay [7] was 236.1 µg/mL (≈ 475 µM).

Regarding `O=Cc1c(-c2ccccc2)[nH]c2ccccc12`, in assay [6], the inhibition was 7.6%. The compound `Cc1ccc2c(c1)COC(c1c(-c3ccccc3)[nH]c3ccccc13)N2` (configuration not stated) registered an IC50 in assay [3] of 11.5 µM. `O=C1Nc2ccccc2/C1=N/NC(=S)N/N=C/c1ccc(Cl)cc1`: the Activity in assay [8] was 29.6%. Regarding `Nc1ccc(-c2cc3ccccc3[nH]2)cc1`, the inhibition in assay [6] amounted to 11%.

Consider `O=C(N[C@@H](Cc1c[nH]c2ccccc12)C(=O)O)c1cccc(Cl)c1`, for which the Activity in assay [2] amounted to 49%. Consider `c1ccc2c(c1)COC(c1c[nH]c3ccccc13)N2` (configuration not stated), for which, in assay [3], the IC50 amounted to 11.5 µM.
